Test results: ChEMBL document CHEMBL1201862, “PubChem BioAssay data set” (2004)
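Cells were grown in 96-well plates and exposed to each compound for 48 hours at five concentrations; endpoints were interpolated linearly between bracketing concentrations, or set to the highest concentration if not reached. GI50 is the concentration that inhibits growth by half.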 The source made the active and inactive calls. No stated cut-off is given here; in the data, active = GI50 up to about 1.1 µM and inactive = higher.

Key:
Test in all cases: DTP human tumour cell line panel, 48 h
[1] = test system: 786-0
[2] = test system: A498
[3] = test system: A549
[4] = test system: ACHN
[5] = test system: BT-549
[6] = test system: CAKI-1
[7] = test system: CCRF-CEM
[8] = test system: COLO 205
[9] = test system: DU-145
[10] = test system: EKVX
[11] = test system: HCC 2998
[12] = test system: HCT-116
[13] = test system: HCT-15
[14] = test system: HL-60
[15] = test system: HOP-62
[16] = test system: HOP-92
[17] = test system: HT-29
[18] = test system: Hs-578T
[19] = test system: IGROV-1
[20] = test system: K562
[21] = test system: KM12
[22] = test system: LOX IMVI
[23] = test system: M14
[24] = test system: MCF7
[25] = test system: MDA-MB-231
[26] = test system: MDA-MB-435
[27] = test system: MDA-N
[28] = test system: MOLT-4
[29] = test system: Malme-3M
[30] = test system: NCI-H23
[31] = test system: NCI-H460
[32] = test system: NCI-H522
[33] = test system: NCI/ADR-RES
[34] = test system: OVCAR-3
[35] = test system: OVCAR-5
[36] = test system: OVCAR-8
[37] = test system: PC-3
[38] = test system: RPMI-8226
[39] = test system: RXF 393
[40] = test system: SF-268
[41] = test system: SF-295
[42] = test system: SF-539
[43] = test system: SK-MEL-28
[44] = test system: SK-MEL-2
[45] = test system: SK-MEL-5
[46] = test system: SK-OV-3
[47] = test system: SN12C
[48] = test system: SNB-19
[49] = test system: SR
[50] = test system: SW-620
[51] = test system: T47D
[52] = test system: TK-10
[53] = test system: U-251
[54] = test system: UACC-257
[55] = test system: UACC-62
[56] = test system: UO-31
[57] = test system: NCI-H226
[58] = test system: OVCAR-4
[59] = test system: SNB-75

COc1ccc(CCN2C(=O)C(=O)C(C(=O)c3ccccc3)C2c2ccccc2)cc1OC (stereo not drawn)
GI50 [1]: > 100 µM (inactive)
GI50 [2]: > 100 µM (inactive)
GI50 [3]: > 100 µM (inactive)
GI50 [4]: > 100 µM (inactive)
GI50 [5]: 51.6 µM (inactive)
GI50 [6]: > 100 µM (inactive)
GI50 [7]: 56.5 µM (inactive)
GI50 [8]: > 100 µM (inactive)
GI50 [9]: > 100 µM (inactive)
GI50 [10]: > 100 µM (inactive)
GI50 [11]: > 100 µM (inactive)
GI50 [12]: > 100 µM (inactive)
GI50 [13]: 60.5 µM
GI50 [14]: > 100 µM (inactive)
GI50 [15]: > 100 µM (inactive)
GI50 [16]: 41.7 µM (inactive)
GI50 [17]: > 100 µM (inactive)
GI50 [18]: 41.6 µM (inactive)
GI50 [19]: > 100 µM (inactive)
GI50 [20]: > 100 µM (inactive)
GI50 [21]: > 100 µM (inactive)
GI50 [22]: 86.7 µM (inactive)
GI50 [23]: > 100 µM (inactive)
GI50 [24]: > 100 µM (inactive)
GI50 [25]: > 100 µM (inactive)
GI50 [26]: > 100 µM (inactive)
GI50 [27]: > 100 µM (inactive)
GI50 [28]: > 100 µM (inactive)
GI50 [29]: > 100 µM (inactive)
GI50 [30]: > 100 µM (inactive)
GI50 [31]: > 100 µM (inactive)
GI50 [32]: > 100 µM (inactive)
GI50 [33]: 58.6 µM (inactive)
GI50 [34]: > 100 µM (inactive)
GI50 [35]: > 100 µM (inactive)
GI50 [36]: > 100 µM (inactive)
GI50 [37]: > 100 µM (inactive)
GI50 [38]: 51.2 µM (inactive)
GI50 [39]: > 100 µM (inactive)
GI50 [40]: > 100 µM (inactive)
GI50 [41]: 44.2 µM (inactive)
GI50 [42]: > 100 µM (inactive)
GI50 [43]: > 100 µM (inactive)
GI50 [44]: > 100 µM (inactive)
GI50 [45]: > 100 µM (inactive)
GI50 [46]: > 100 µM (inactive)
GI50 [47]: 67.8 µM (inactive)
GI50 [48]: > 100 µM (inactive)
GI50 [49]: > 100 µM (inactive)
GI50 [50]: > 100 µM (inactive)
GI50 [51]: 90.8 µM (inactive)
GI50 [52]: > 100 µM (inactive)
GI50 [53]: > 100 µM (inactive)
GI50 [54]: > 100 µM (inactive)
GI50 [55]: > 100 µM (inactive)
GI50 [56]: > 100 µM (inactive)

COc1cc(C=O)cc(/C=N/c2ccc(S(N)(=O)=O)cc2)c1O
GI50 [2]: 23.8 µM (inactive)
GI50 [3]: 44.1 µM (inactive)
GI50 [4]: 3.82 µM (inactive)
GI50 [5]: 6.73 µM (inactive)
GI50 [6]: 7.38 µM (inactive)
GI50 [7]: 9.77 µM (inactive)
GI50 [8]: 16.6 µM (inactive)
GI50 [9]: 40.1 µM (inactive)
GI50 [10]: 56.2 µM (inactive)
GI50 [11]: 19.3 µM (inactive)
GI50 [12]: 18.2 µM (inactive)
GI50 [13]: 63.1 µM
GI50 [14]: 25.4 µM (inactive)
GI50 [15]: 13.5 µM (inactive)
GI50 [16]: 2.86 µM (inactive)
GI50 [17]: 13.7 µM (inactive)
GI50 [18]: 2.82 µM (inactive)
GI50 [19]: > 100 µM (inactive)
GI50 [20]: 47 µM (inactive)
GI50 [21]: 27.7 µM (inactive)
GI50 [22]: 10.9 µM (inactive)
GI50 [23]: 3.92 µM (inactive)
GI50 [24]: > 100 µM (inactive)
GI50 [25]: 20.4 µM (inactive)
GI50 [26]: 9.2 µM (inactive)
GI50 [27]: 5.6 µM (inactive)
GI50 [28]: 18 µM (inactive)
GI50 [29]: 2.88 µM (inactive)
GI50 [57]: 4.3 µM (inactive)
GI50 [30]: > 100 µM (inactive)
GI50 [31]: 26.2 µM (inactive)
GI50 [32]: 21.2 µM (inactive)
GI50 [33]: 10.5 µM (inactive)
GI50 [34]: 26.1 µM (inactive)
GI50 [58]: > 100 µM (inactive)
GI50 [35]: 26.7 µM (inactive)
GI50 [36]: 6.21 µM (inactive)
GI50 [37]: 2.96 µM (inactive)
GI50 [38]: 7.13 µM (inactive)
GI50 [39]: 3.99 µM (inactive)
GI50 [40]: 4.13 µM (inactive)
GI50 [41]: 3.64 µM (inactive)
GI50 [42]: 2.93 µM (inactive)
GI50 [43]: 4.36 µM (inactive)
GI50 [44]: 4.47 µM (inactive)
GI50 [45]: 4.91 µM (inactive)
GI50 [46]: 2.9 µM (inactive)
GI50 [47]: 6.65 µM (inactive)
GI50 [48]: 11.3 µM (inactive)
GI50 [59]: 23.9 µM (inactive)
GI50 [49]: 6.11 µM (inactive)
GI50 [50]: 24.4 µM (inactive)
GI50 [51]: 14.3 µM (inactive)
GI50 [52]: 31.7 µM (inactive)
GI50 [53]: 5.36 µM (inactive)
GI50 [54]: 6.92 µM (inactive)
GI50 [55]: 23.8 µM (inactive)
GI50 [56]: 5.51 µM (inactive)

CCOC(=O)N/N=C(/N)Cc1ccccc1
GI50 [1]: > 100 µM (inactive)
GI50 [2]: > 100 µM (inactive)
GI50 [3]: > 100 µM (inactive)
GI50 [4]: > 100 µM (inactive)
GI50 [5]: > 100 µM (inactive)
GI50 [6]: > 100 µM (inactive)
GI50 [7]: > 100 µM (inactive)
GI50 [8]: > 100 µM (inactive)
GI50 [9]: > 100 µM (inactive)
GI50 [10]: > 100 µM (inactive)
GI50 [11]: > 100 µM (inactive)
GI50 [12]: > 100 µM (inactive)
GI50 [13]: > 100 µM
GI50 [14]: > 100 µM (inactive)
GI50 [15]: > 100 µM (inactive)
GI50 [16]: > 100 µM (inactive)
GI50 [18]: > 100 µM (inactive)
GI50 [19]: > 100 µM (inactive)
GI50 [20]: > 100 µM (inactive)
GI50 [21]: > 100 µM (inactive)
GI50 [22]: > 100 µM (inactive)
GI50 [23]: > 100 µM (inactive)
GI50 [24]: > 100 µM (inactive)
GI50 [25]: > 100 µM (inactive)
GI50 [26]: > 100 µM (inactive)
GI50 [27]: > 100 µM (inactive)
GI50 [28]: > 100 µM (inactive)
GI50 [29]: > 100 µM (inactive)
GI50 [31]: > 100 µM (inactive)
GI50 [32]: > 100 µM (inactive)
GI50 [33]: > 100 µM (inactive)
GI50 [34]: > 100 µM (inactive)
GI50 [35]: > 100 µM (inactive)
GI50 [36]: > 100 µM (inactive)
GI50 [37]: > 100 µM (inactive)
GI50 [39]: > 100 µM (inactive)
GI50 [40]: > 100 µM (inactive)
GI50 [41]: > 100 µM (inactive)
GI50 [42]: > 100 µM (inactive)
GI50 [43]: > 100 µM (inactive)
GI50 [44]: > 100 µM (inactive)
GI50 [45]: > 100 µM (inactive)
GI50 [46]: > 100 µM (inactive)
GI50 [47]: > 100 µM (inactive)
GI50 [48]: > 100 µM (inactive)
GI50 [59]: > 100 µM (inactive)
GI50 [49]: > 100 µM (inactive)
GI50 [50]: > 100 µM (inactive)
GI50 [51]: > 100 µM (inactive)
GI50 [52]: > 100 µM (inactive)
GI50 [53]: > 10 µM (inactive)
GI50 [54]: > 100 µM (inactive)
GI50 [55]: > 100 µM (inactive)
GI50 [56]: > 100 µM (inactive)
